Reference: ChEMBL document CHEMBL3739370, “Synthesis and evaluation of amide, sulfonamide and urea benzisoxazole derivatives as potential atypical antipsychotics” (Medchemcomm, 2015)

Assays:
Mus musculus [1] = assay: Toxicity in po dosed mouse assessed as catalepsy; assay type: organism-based; settings: in vivo
Mus musculus [2] = assay: Selectivity ratio of ED50 for po dosed mouse assessed as catalepsy to ED50 for po dosed mouse assessed as reversal of apomorphine-induced climbing activity
Mus musculus [3] = assay: Selectivity ratio of ED50 for po dosed mouse assessed as catalepsy to ED50 for po dosed mouse assessed as reversal of MK-801-induced hyperactivity
Mus musculus [4] = assay: Antipsychotic activity in po dosed mouse assessed as reversal of MK-801-induced hyperactivity; assay type: functional
Mus musculus [5] = assay: Antipsychotic activity in po dosed mouse assessed as reversal of apomorphine-induced climbing activity; assay type: functional
[6] = target: T1, 5-hydroxytryptamine receptor 1A (Rattus norvegicus, UniProt P19327); assay: Displacement of [3H]8-OH-DPAT from 5HT1A receptor in rat brain cortex; assay type: tissue-based
T1 sequence (P19327 whole entry): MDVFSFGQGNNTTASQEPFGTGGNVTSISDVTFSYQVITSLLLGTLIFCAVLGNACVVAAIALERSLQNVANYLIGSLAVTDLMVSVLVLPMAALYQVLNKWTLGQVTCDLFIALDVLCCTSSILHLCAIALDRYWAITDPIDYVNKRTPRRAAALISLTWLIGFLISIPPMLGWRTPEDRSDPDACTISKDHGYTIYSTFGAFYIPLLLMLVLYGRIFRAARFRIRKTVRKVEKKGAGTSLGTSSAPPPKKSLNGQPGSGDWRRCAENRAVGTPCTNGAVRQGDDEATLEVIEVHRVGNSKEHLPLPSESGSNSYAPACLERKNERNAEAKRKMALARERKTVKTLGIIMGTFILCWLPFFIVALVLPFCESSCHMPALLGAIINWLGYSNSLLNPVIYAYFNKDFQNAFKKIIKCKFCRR

D(2) dopamine receptor = D(2) dopamine receptor (Rattus norvegicus, UniProt P61169); assay: Displacement of [3H]spiperone from dopamine D2 receptor in rat striatum
Sequence of D(2) dopamine receptor (P61169 whole entry): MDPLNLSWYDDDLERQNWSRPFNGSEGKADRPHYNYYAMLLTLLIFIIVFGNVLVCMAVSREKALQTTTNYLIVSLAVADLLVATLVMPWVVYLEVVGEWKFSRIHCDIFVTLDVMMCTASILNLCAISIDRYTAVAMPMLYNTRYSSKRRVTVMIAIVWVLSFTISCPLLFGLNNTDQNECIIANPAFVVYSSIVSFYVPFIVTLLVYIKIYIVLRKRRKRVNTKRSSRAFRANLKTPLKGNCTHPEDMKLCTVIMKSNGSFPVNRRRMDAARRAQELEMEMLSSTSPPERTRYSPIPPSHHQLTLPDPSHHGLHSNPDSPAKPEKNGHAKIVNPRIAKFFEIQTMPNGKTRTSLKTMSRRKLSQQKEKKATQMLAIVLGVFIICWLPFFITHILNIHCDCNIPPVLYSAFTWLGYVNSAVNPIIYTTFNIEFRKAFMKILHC

[7] = target: 5-hydroxytryptamine receptor 2A (Rattus norvegicus, UniProt P14842); assay: Displacement of [3H]ketanserin from 5HT2A receptor in rat brain cortex; assay type: tissue-based
Sequence of 5-hydroxytryptamine receptor 2A (P14842 whole entry): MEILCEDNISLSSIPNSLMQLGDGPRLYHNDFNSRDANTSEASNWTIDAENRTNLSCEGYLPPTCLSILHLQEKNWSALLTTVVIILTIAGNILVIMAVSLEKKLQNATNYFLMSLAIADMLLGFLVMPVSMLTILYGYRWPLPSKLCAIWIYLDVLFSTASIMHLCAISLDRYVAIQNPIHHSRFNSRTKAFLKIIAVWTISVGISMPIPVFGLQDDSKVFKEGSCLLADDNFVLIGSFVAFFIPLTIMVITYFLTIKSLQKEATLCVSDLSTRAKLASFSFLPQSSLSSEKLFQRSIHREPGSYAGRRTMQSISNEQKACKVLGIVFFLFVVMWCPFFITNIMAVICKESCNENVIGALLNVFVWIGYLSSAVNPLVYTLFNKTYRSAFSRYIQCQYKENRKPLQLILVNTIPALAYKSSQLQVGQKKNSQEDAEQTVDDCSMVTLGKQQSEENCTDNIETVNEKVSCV

Mus musculus [8] = assay: Antipsychotic activity in po dosed mouse assessed as reversal of DOI-induced head twitch activity; assay type: functional

Compound | Ki [6] | Ki (D(2) dopamine receptor) | Ki [7] | also measured
O=C(CCCN1CCC(O)(c2ccc(Cl)cc2)CC1)c1ccc(F)cc1 [HALOPERIDOL] |  |  |  | ED50 (Mus musculus [1]): 0.47 mg/kg; Ratio ED50 (Mus musculus [2]): 2.8; Ratio ED50 (Mus musculus [3]): 3.4; ED50 (Mus musculus [4]): 0.14 mg/kg; ED50 (Mus musculus [5]): 0.17 mg/kg
O=C(C1CC1)N1CCC(CN2CCC(c3noc4cc(F)ccc34)CC2)CC1 | > 10000 nM | > 10000 nM | 216 nM | 
O=C(Nc1ccc(Cl)cc1)N1CCC(CN2CCC(c3noc4cc(F)ccc34)CC2)CC1 | 299 nM | 85.6 nM | 6.8 nM | 
CCN(C)C(=O)N1CCC(CN2CCC(c3noc4cc(F)ccc34)CC2)CC1 | > 10000 nM | > 10000 nM | 1100 nM | 
CN1CCN(C2=Nc3cc(Cl)ccc3Nc3ccccc32)CC1 [CLOZAPINE] |  |  |  | ED50 (Mus musculus [1]): 55.89 mg/kg; ED50 (Mus musculus [4]): 2.11 mg/kg; ED50 (Mus musculus [5]): 4.52 mg/kg
O=C(c1ccccc1)N1CCC(CN2CCC(c3noc4cc(F)ccc34)CC2)CC1 | 599 nM | 1270 nM | 114 nM | 
O=C(/C=C/c1ccccc1)N1CCC(CN2CCC(c3noc4cc(F)ccc34)CC2)CC1 | > 10000 nM | > 10000 nM | 2110 nM | 
O=C(NCc1ccccc1)N1CCC(CN2CCC(c3noc4cc(F)ccc34)CC2)CC1 | > 10000 nM | 1270 nM | 265 nM | 
Cc1nc2n(c(=O)c1CCN1CCC(c3noc4cc(F)ccc34)CC1)CCCC2 [RISPERIDONE] |  |  |  | ED50 (Mus musculus [1]): 0.38 mg/kg; ED50 (Mus musculus [8]): 0.038 mg/kg; ED50 (Mus musculus [4]): 0.013 mg/kg; ED50 (Mus musculus [5]): 0.012 mg/kg
O=S(=O)(c1ccccc1)N1CCC(CN2CCC(c3noc4cc(F)ccc34)CC2)CC1 | > 10000 nM | 2500 nM | > 10000 nM | 
O=C(c1ccc(F)cc1)N1CCC(CN2CCC(c3noc4cc(F)ccc34)CC2)CC1 | 157 nM | 86.8 nM | 19 nM | 
Cc1ccc(NC(=O)N2CCC(CN3CCC(c4noc5cc(F)ccc45)CC3)CC2)cc1 | 276 nM | 178 nM | 26.9 nM | 
CN(C)C(=O)N1CCC(CN2CCC(c3noc4cc(F)ccc34)CC2)CC1 | > 10000 nM | > 10000 nM | 569 nM | 
O=C(c1ccc([N+](=O)[O-])cc1)N1CCC(CN2CCC(c3noc4cc(F)ccc34)CC2)CC1 | 269 nM | 195 nM | 71.8 nM | 
CC(C)(C)C(=O)N1CCC(CN2CCC(c3noc4cc(F)ccc34)CC2)CC1 | > 10000 nM | > 10000 nM | 310 nM | 
COc1ccc(C(=O)N2CCC(CN3CCC(c4noc5cc(F)ccc45)CC3)CC2)cc1 | 2500 nM | 1190 nM | 121 nM | 

Now from value to compound, other results behind:

Ki [6] | Ki (D(2) dopamine receptor) | Ki [7] | Compound | also measured
1370 nM | > 10000 nM | 66.8 nM | O=[N+]([O-])c1ccc(S(=O)(=O)N2CCC(CCN3CCC(c4noc5cc(F)ccc45)CC3)CC2)cc1 | 
1200 nM | 1380 nM | 32.6 nM | O=S(=O)(c1ccc2ccccc2c1)N1CCC(CN2CCC(c3noc4cc(F)ccc34)CC2)CC1 | 
1010 nM | 590 nM | 26.9 nM | O=[N+]([O-])c1ccccc1S(=O)(=O)N1CCC(CN2CCC(c3noc4cc(F)ccc34)CC2)CC1 | 
789 nM | 211 nM | 368 nM | O=S(=O)(c1ccc(F)cc1)N1CCC(CN2CCC(c3noc4cc(F)ccc34)CC2)CC1 | 
479 nM | 190 nM | 113 nM | N#Cc1ccc(S(=O)(=O)N2CCC(CN3CCC(c4noc5cc(F)ccc45)CC3)CC2)cc1 | 
> 10000 nM | 1290 nM | 1520 nM | Cc1ccc(S(=O)(=O)N2CCC(CN3CCC(c4noc5cc(F)ccc45)CC3)CC2)cc1 | 
917 nM | 759 nM | 135 nM | O=[N+]([O-])c1cccc(S(=O)(=O)N2CCC(CN3CCC(c4noc5cc(F)ccc45)CC3)CC2)c1 | 
165 nM | 1290 nM | 455 nM | O=S(=O)(c1cccs1)N1CCC(CN2CCC(c3noc4cc(F)ccc34)CC2)CC1 | 
990 nM | 1100 nM | 30.1 nM | O=[N+]([O-])c1ccc(S(=O)(=O)N2CCCC(CN3CCC(c4noc5cc(F)ccc45)CC3)C2)cc1 (stereo not drawn) | 
